The results in this text go back to ChEMBL document CHEMBL1201862, “PubChem BioAssay data set” (2004).

The target of one assay is Misshapen-like kinase 1 (Homo sapiens, UniProt Q8N4C8). Format: functional.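 Also: kinome panel screen with MINK as the panel member.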
Assay [1] has as its target cAMP-dependent protein kinase catalytic subunit alpha (Homo sapiens, UniProt P17612). Format: functional.
Assay [2] deals with Tyrosine-protein kinase receptor UFO (Homo sapiens, UniProt P30530). Format: functional.
Tyrosine-protein kinase receptor UFO, sequence (P30530 whole entry): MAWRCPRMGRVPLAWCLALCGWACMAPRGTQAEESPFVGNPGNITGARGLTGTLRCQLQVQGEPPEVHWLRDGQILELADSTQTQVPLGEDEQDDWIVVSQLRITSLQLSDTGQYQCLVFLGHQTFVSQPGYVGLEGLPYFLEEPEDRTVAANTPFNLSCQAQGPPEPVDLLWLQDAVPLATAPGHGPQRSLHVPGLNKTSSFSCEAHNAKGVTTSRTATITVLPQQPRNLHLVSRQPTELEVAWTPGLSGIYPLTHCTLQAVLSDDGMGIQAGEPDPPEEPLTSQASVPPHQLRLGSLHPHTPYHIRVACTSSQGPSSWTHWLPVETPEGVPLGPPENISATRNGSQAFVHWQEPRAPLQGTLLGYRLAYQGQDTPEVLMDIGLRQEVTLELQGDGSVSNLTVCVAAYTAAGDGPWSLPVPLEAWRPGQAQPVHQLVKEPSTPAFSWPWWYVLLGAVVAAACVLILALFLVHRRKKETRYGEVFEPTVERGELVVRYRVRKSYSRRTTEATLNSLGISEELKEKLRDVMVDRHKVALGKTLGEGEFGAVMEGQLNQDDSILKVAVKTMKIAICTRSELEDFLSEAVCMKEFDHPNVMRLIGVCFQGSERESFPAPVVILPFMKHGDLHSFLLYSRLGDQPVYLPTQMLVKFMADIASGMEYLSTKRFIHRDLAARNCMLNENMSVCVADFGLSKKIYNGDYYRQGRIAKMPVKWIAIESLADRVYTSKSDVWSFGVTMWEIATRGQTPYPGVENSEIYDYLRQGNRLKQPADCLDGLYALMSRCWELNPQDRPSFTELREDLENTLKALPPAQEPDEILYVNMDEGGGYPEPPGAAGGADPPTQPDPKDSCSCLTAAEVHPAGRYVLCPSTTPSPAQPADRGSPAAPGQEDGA
For assay [3], the target named is Serine/threonine-protein kinase 3 (Homo sapiens, UniProt Q13188). Format: functional.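 Also: measured as one member of a kinome-wide kinase panel.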
Serine/threonine-protein kinase 3, sequence (Q13188 whole entry): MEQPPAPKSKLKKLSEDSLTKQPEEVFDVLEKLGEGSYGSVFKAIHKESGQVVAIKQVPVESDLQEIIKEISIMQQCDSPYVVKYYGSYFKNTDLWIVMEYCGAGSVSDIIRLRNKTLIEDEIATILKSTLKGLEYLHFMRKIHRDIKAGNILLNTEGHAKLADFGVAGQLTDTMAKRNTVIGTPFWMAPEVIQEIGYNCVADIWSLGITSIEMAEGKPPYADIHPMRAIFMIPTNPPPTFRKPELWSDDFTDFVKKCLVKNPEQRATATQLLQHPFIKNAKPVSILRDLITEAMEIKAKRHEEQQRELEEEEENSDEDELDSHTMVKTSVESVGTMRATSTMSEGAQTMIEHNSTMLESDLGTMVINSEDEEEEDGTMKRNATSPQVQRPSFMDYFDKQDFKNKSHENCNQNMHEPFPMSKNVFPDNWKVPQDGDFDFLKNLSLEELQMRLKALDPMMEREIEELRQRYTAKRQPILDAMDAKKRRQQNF
Assay [4] has as its target T1, Heat shock factor protein 1 (Mus musculus, UniProt P38532).
T1 sequence (P38532 whole entry): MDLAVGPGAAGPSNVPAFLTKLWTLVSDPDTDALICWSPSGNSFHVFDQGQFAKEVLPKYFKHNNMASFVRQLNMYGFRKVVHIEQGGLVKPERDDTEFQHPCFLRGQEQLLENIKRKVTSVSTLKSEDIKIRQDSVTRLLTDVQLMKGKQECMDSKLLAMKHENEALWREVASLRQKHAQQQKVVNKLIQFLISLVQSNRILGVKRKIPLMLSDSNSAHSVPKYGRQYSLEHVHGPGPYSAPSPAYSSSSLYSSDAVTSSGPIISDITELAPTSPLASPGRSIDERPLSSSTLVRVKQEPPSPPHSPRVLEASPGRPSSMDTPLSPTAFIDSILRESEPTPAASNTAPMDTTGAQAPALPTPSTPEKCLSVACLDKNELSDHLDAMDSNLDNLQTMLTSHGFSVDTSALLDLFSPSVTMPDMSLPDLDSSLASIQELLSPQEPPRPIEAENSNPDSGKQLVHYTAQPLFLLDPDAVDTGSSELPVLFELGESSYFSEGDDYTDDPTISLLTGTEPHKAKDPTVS
The assay is described as follows: decrease of HSF1-responsive luciferase luminescence – cell-based, NIH3T3, dose retest, confirmation (AID 2382).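 Also: NIH3T3 fibroblasts with HSF1-driven luciferase reporter stressed by proteasome inhibitor MG132; luminescence from HSF1-driven luciferase expression after 8 hours of MG132 stress.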 Type of assay: functional.

The target of a further assay is Cytochrome P450 2C9 (Homo sapiens, UniProt P11712).
Cytochrome P450 2C9, sequence (P11712 whole entry): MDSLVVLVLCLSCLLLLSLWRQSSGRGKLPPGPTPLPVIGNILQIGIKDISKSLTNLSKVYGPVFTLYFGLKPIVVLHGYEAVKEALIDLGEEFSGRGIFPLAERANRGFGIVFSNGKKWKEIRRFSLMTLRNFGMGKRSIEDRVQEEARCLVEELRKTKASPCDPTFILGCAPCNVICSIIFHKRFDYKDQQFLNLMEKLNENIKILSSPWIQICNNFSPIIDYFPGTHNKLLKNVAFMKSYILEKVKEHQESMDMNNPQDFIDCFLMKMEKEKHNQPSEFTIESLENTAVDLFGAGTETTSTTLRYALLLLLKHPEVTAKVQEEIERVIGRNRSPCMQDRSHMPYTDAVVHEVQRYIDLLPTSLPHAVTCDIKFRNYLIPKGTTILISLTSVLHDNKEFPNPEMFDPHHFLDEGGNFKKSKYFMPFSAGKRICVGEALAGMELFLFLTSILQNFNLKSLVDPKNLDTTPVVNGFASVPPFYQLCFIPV
Assay [5] in a line: NIH-3T3 fibroblast cytotoxicity, dose response, cytotoxicity control, cell-based, fluorescence, Alamar Blue, secondary assay (AID 2327).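 Also: NIH-3T3 mouse fibroblasts cultured with fluconazole at 8 µg/mL.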 Format: functional.
The target of assay [6] is T2, Tyrosine-protein phosphatase non-receptor type 7 (Homo sapiens, UniProt P35236).
T2 sequence (P35236 whole entry): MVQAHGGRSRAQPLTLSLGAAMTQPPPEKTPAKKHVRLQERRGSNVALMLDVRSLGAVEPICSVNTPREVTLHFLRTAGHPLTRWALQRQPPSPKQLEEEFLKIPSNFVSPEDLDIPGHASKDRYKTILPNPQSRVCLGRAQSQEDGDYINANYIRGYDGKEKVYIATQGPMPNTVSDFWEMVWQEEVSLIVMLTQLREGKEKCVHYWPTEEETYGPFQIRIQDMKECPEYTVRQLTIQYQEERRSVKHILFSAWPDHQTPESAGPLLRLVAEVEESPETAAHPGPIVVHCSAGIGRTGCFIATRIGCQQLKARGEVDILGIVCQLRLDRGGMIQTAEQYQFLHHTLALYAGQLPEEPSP
Type of assay: functional.

The target in assay [7] is Dual specificity protein phosphatase 3 (Homo sapiens, UniProt P51452). The assay is described as follows: VHR1 phosphatase inhibitors, biochemical (AID 1878).
Dual specificity protein phosphatase 3, sequence (P51452 whole entry): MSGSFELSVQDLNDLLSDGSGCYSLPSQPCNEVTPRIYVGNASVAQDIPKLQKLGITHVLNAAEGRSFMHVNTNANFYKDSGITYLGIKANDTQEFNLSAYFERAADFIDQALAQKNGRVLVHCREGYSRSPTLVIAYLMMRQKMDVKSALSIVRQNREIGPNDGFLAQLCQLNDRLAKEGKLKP
For assay [8], the target named is T3, Replicative DNA helicase DnaB (Mycobacterium tuberculosis, UniProt P9WMR3).
T3 sequence (P9WMR3 whole entry): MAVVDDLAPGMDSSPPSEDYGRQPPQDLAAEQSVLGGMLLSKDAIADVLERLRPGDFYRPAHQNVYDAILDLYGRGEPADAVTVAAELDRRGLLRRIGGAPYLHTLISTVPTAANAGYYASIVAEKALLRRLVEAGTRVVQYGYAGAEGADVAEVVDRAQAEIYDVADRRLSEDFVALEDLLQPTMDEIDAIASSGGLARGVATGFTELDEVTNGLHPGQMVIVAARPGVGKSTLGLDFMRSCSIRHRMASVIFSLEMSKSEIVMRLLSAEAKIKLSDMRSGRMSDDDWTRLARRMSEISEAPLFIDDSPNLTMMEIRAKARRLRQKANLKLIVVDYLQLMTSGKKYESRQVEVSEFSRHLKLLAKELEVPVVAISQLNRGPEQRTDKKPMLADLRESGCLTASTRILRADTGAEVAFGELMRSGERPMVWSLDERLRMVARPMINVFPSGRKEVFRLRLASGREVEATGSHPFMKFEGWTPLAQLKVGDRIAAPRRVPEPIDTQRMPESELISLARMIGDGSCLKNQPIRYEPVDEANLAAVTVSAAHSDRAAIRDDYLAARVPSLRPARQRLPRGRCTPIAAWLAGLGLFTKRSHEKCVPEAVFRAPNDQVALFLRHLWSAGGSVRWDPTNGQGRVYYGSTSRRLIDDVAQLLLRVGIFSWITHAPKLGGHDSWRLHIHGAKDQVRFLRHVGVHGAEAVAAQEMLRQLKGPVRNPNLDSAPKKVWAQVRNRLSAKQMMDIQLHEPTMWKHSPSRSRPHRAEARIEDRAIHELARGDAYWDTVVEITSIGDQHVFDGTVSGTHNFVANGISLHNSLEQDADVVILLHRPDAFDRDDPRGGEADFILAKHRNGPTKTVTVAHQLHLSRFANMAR
Description: DnaB Intein secondary assay Measured in Biochemical System Using Plate Reader - 2047-04_Inhibitor_Dose_DryPowder_Activity. [Related pubchem assays (depositor defined):AID2223].

The target in assay [9] is T3, Replicative DNA helicase DnaB. The assay is described as follows: DnaB intein splicing inhibitors, dose response, biochemical, cell-free fluorescence (AID 449749). Type of assay: functional.
Another assay has as its target Paired box protein Pax-8 (Homo sapiens, UniProt Q06710). Description: PAX8 transcriptional activity inhibition in RMG-I – RMG-I cells, luciferase, cherry-pick, dose response (AID 687027).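 Also: luciferase reporter driven by Pax8 target thyroperoxidase promoter measured by SteadyGlo luminescence.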 Format: functional, cell-based.
A short description of assay [10]: general cell-killing toxicity readout – plate reader, dry powder samples, cytotoxicity control for PAX8 inhibitor project, dose response (AID 743021). Type of assay: functional, cell-based.

Active and inactive are the calls of the source.

For orientation: Ki means a dissociation constant, usually derived from enzyme kinetics or from competition with a known ligand. A word on the EC50: it is the midpoint of the concentration-response curve. The term AC50 denotes the concentration at which the activity in the assay is half-maximal. By IC50 is commonly meant the concentration at which inhibition is half-maximal.

Misshapen-like kinase 1, sequence (Q8N4C8 whole entry): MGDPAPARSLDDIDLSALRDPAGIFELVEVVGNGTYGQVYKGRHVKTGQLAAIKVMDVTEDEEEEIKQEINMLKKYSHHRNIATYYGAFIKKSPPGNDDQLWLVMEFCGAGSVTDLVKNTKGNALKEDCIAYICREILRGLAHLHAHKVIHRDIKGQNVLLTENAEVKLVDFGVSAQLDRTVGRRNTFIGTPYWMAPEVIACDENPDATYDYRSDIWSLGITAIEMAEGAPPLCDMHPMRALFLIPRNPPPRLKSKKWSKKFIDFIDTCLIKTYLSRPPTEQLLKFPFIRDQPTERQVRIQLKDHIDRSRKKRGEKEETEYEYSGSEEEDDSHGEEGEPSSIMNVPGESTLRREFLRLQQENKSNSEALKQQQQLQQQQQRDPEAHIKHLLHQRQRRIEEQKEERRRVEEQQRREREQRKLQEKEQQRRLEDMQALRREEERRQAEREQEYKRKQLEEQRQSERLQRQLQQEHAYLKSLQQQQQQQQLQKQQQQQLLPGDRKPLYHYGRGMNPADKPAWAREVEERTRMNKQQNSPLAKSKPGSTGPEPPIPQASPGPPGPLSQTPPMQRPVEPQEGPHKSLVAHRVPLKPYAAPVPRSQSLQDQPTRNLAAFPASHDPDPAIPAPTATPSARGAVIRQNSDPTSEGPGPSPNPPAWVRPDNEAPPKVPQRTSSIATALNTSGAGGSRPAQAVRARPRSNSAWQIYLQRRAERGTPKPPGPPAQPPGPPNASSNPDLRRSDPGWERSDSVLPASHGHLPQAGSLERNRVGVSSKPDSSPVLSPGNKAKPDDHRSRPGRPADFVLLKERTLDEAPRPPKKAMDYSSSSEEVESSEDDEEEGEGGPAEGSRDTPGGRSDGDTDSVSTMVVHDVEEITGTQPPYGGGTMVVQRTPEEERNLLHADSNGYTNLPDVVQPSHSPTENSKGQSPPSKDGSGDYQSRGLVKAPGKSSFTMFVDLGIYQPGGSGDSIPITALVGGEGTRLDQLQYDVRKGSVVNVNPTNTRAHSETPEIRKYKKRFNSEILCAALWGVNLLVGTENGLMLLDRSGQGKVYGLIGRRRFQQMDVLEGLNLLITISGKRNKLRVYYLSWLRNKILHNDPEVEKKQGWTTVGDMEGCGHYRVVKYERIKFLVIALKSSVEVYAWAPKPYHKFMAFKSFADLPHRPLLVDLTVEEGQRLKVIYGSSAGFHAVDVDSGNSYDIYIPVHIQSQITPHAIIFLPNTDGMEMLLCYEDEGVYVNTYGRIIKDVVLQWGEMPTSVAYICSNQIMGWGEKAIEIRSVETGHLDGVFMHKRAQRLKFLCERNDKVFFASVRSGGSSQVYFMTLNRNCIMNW
Paired box protein Pax-8, sequence (Q06710 whole entry): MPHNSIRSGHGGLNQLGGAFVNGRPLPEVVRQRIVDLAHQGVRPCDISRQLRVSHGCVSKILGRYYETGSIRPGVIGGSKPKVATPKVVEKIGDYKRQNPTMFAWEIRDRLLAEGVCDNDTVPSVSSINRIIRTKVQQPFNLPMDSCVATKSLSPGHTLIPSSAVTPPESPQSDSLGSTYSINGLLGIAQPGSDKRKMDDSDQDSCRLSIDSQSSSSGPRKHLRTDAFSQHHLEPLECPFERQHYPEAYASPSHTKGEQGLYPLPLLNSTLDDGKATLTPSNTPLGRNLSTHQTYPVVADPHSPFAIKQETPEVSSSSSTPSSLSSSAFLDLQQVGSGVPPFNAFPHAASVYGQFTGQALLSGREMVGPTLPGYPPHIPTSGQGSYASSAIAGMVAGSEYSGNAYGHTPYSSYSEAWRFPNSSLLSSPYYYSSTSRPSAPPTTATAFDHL

In the case of `COc1cc2c(cc1Nc1nc(Nc3cccc(F)c3C(N)=O)c3cc[nH]c3n1)N(C(=O)CN(C)C)CC2`, the inhibition constant Ki was 3.98 µM (active) on Misshapen-like kinase 1, > 1.26 µM (inactive) in assay [1], 0.126 µM (active) in assay [2] and > 3.16 µM (inactive) in [3].

For the molecule `CC(C)c1ccc(-c2nnn(CCC(=O)O)n2)cc1`, the EC50 in [4] is < 0.16 µM (active). Moreover, the AC50 at Cytochrome P450 2C9 is 31.6 µM (inconclusive).

Regarding `CCn1nc(/C=C/c2ccccc2)nc2c(=O)n(C)c(=O)nc1-2`, in assay [5], the concentration for a half-maximal effect (EC50) was 0.952 µM (inconclusive). Further, the IC50 was 10.3 µM (active) in assay [6] and 106 µM (inactive) in [7]. In addition, the AC50 in assay [8] was 0.184 µM (active); in assay [9], 0.487 µM (active); at Paired box protein Pax-8, 4.21 µM (active); in assay [10] it was 12.7 µM (active).
